Read-outs that look alike come from different tables or passages of the source. Positions of bridges follow the written chain, without caps; N, C: chain ends. Residues, ends and D or L forms follow the SMILES beside them.
Columns and labels:
[1] = biological target: T1, KLK5 (Homo sapiens, UniProt Q9Y337); test: biochemical
T1 construct: purchased Novoprotein
T1 sequence (Q9Y337 23-293): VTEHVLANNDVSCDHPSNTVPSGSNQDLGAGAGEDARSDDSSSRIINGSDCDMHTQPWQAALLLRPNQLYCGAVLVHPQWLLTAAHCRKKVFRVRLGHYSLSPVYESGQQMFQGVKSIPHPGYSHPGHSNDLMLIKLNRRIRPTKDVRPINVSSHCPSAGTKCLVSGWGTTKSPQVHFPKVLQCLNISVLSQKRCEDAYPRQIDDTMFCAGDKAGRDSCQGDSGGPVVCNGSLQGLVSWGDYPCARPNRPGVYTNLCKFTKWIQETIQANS
Procedure: (§1) All assays were performed on 96-well microplates and the change in relative fluorescence unit (RFU) was measured by fluorescence spectrometer (BMG FLUOstar OPTIMA). The excitation/emission wavelength was 360/460 nm for the substrate Boc-VPR-AMC (Bachem AG, Hauptstrasse, Switzerland) and MeOSuc-AAPV-AMC (Bachem AG, Hauptstrasse, Switzerland) and 485/520 nm for BODIPY_FL casein (Invitrogen, Carlsbad, US). Stock solution of Boc-VPR-AMC was prepared by dissolving the solid in dimethyl sulfoxide to 100 mM and 10 mM for MeOSuc-AAPV. For BODIPY_FL casein, it was reconstituted to 1 mg/mL in 1xPBS. […] The % of inhibition was calculated by the following equation: % of Inhibition=(1−(Sample RFU − Min RFU)/(Max RFU − Min RFU)) X100
(§2) Each inhibition curves were done in triplicates with a minimum of five concentration points fitted. Fitting of each curve was done using SigmaPlot with the Four Parameter Logistic Function and the IC50 calculated. […] All tested compounds were reconstituted to stock solution in water.
(§3) The diluent for all the tested compounds, protein and substrate (except KLK7, which was done with 10 mM Tris pH 7.8) was 1xPBS pH 8.0–8.9. The serially diluted ligands were mixed with diluted bovine trypsin (Sigma, Dorset, U.K.) or activated KLK14, or KLK5, or activated KLK8 or matriptase (catalytic domain only, >90% purity by SDS-PAGE, endotoxin <0.1 ng/μg, R&D, Minneapolis, U.S.) or activated KLK7 or human neutrophil elastase (purified from human plasma, >95% purity by SDS-PAGE, Abcam, Cambridge, U.K.) or porcine pancreatic elastase 1 (Sigma, Dorset, U.K.) or human plasma kallikrein or human plasma plasmin (purified from human plasma, ≥95% purity by SDS-PAGE, BioVision, Milpitas, U.S.). 20μL of the ligand-protein mixture was pipetted to a well of a 96-well microplate in triplicates. The reaction was started by addition of 90–100 μL of the diluted substrate solution (contained 0.05% v/v Brij35) and the plate incubated at 25°C but 37°C for KLK7. RFU reading for each well was taken 6 minutes (trypsin) or 15 minutes (KLK14, KLK5, KLK8, matriptase, human neutrophil elastase, porcine pancreatic elastase 1, plasma kallikrein and plasmin) or 20 hours (KLK7) after substrate addition.
There are two previously reported Km values for KLK5 and its substrate Boc-VPR-AMC which allowed the IC50 to Ki conversion. Ki values were calculated according to the Cheng-Prusoff equation Ki= IC50/1+[S]/Km for single site competitive binding.

[2] = biological target: T2, Bovine Trypsin (Bos taurus, UniProt P00760); test: biochemical
T2 construct: purchased Sigma
T2 sequence (P00760 24-246): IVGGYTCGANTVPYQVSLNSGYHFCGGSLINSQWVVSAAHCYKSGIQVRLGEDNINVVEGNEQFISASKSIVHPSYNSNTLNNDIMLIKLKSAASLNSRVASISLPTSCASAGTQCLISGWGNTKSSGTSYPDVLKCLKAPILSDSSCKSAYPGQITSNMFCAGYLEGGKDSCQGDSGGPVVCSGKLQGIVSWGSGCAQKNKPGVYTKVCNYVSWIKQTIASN
Procedure: as §1, with “The excitation/emission wavelength was 360/460 nm for the substrate Boc-VPR-AMC (Bachem AG, Hauptstrasse, Switzerland) and MeOSuc-AAPV-AMC (Bachem AG, Hauptstrasse, Switzerland) and 485/520 nm for BODIPY_FL casein (Invitrogen, Carlsbad, US).” left out
as §2
The diluent for all the tested compounds, protein and substrate (except KLK7, which was done with 10 mM Tris pH 7.8) was 1xPBS pH 8.0–8.9. […] 20μL of the ligand-protein mixture was pipetted to a well of a 96-well microplate in triplicates. The reaction was started by addition of 90–100 μL of the diluted substrate solution (contained 0.05% v/v Brij35) and the plate incubated at 25°C but 37°C for KLK7. RFU reading for each well was taken 6 minutes (trypsin) or 15 minutes (KLK14, KLK5, KLK8, matriptase, human neutrophil elastase, porcine pancreatic elastase 1, plasma kallikrein and plasmin) or 20 hours (KLK7) after substrate addition.

[3] = biological target: T3, Porcine Pancreatic Elastase 1 (Sus scrofa, UniProt P00772); test: Porcine pancreatic elastase 1 inhibition, MeOSuc-AAPV-AMC assay; type: biochemical; settings: read-out: % inhibition of Porcine Pancreatic Elastase 1
T3 construct: purchased Sigma
Procedure: as §1, §2, §3

[4] = calculated from Table 3 IC50 by Cheng-Prusoff equation, read-out: Ki, KLK5 (converted)
[5] = enzyme 10 nM, Boc-VPR-AMC 42 μM, 1xPBS pH 8.0–8.9, 25°C, 15 minutes
[6] = at 10 μM, enzyme 46 nM, MeOSuc-AAPV-AMC 41 μM

T3 sequence (P00772 27-266): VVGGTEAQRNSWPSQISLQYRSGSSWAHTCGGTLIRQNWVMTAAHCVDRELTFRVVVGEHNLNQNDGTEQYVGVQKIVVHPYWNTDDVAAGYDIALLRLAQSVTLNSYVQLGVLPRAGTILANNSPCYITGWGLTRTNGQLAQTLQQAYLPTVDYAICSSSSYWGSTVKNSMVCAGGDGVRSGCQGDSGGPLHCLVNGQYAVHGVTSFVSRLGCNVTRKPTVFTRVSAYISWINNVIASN

Row | Structure (SMILES) | IC50 [1] | Ki [1] | IC50 [2] | inhibition at 10 µM [3] | Ki [1, 4] | IC50 [1, 5] | IC50 ([2]; enzyme 10 nM, Boc-VPR-AMC 21 μM, 25°C, 6 minutes) | inhibition at 10 µM [3, 6]
1 | CC[C@H](C)[C@@H]1NC(=O)[C@H](CO)NC(=O)[C@H](CCCNC(=N)N)NC(=O)[C@H]([C@@H](C)O)NC(=O)[C@@H]2CSSC[C@H](NC(=O)[C@H](Cc3c[nH]cn3)NC(=O)[C@@H]3CCCN3C(=O)[C@@H]3CCCN3C1=O)C(=O)N[C@@H](Cc1c[nH]c3ccccc13)C(=O)N1CCC[C@H]1C(=O)N[C@@H](CC(=O)O)C(=O)NCC(=O)N[C@@H](CCCNC(=N)N)C(=O)N2 [Analogue 6] (cyclo(CTRSIPPHCWPDGR); disulfide 1-9) | 56 ± 0.5 nM | 51 nM | 23 ± 1 nM | 0% |  |  |  | 
2 | CC[C@H](C)[C@@H]1NC(=O)[C@H](CO)NC(=O)[C@H](CCCCN)NC(=O)[C@H]([C@@H](C)O)NC(=O)[C@@H]2CSSC[C@H](NC(=O)[C@H](Cc3c[nH]cn3)NC(=O)[C@@H]3CCCN3C(=O)[C@@H]3CCCN3C1=O)C(=O)N[C@@H](Cc1c[nH]c3ccccc13)C(=O)N1CCC[C@H]1C(=O)N[C@@H](CC(=O)O)C(=O)NCC(=O)N[C@@H](CCCNC(=N)N)C(=O)N2 [Analogue 2] (cyclo(CTKSIPPHCWPDGR); disulfide 1-9) |  |  | 20 ± 0.2 nM | 0% |  |  |  | 
3 | CC[C@H](C)[C@@H]1NC(=O)[C@H](CO)NC(=O)[C@H](CCCCN)NC(=O)[C@H]([C@@H](C)O)NC(=O)[C@@H]2CSSC[C@H](NC(=O)[C@H](Cc3c[nH]cn3)NC(=O)[C@@H]3CCCN3C(=O)[C@@H]3CCCN3C1=O)C(=O)N[C@@H](Cc1ccccc1)C(=O)N1CCC[C@H]1C(=O)N[C@@H](CC(=O)O)C(=O)NCC(=O)N[C@@H](CCCNC(=N)N)C(=O)N2 [Analogue I10H] (cyclo(CFPDGRCTKSIPPH); disulfide 1-7) |  |  |  |  | 478 nM | 523 ± 11 nM | 46 ± 2 nM | 0%
4 | CC[C@H](C)[C@@H]1NC(=O)[C@@H]2CCCN2C(=O)[C@@H]2CCCN2C(=O)[C@H]([C@@H](C)CC)NC(=O)[C@H](CO)NC(=O)[C@H](CCCCN)NC(=O)[C@H]([C@@H](C)O)NC(=O)[C@@H]2CSSC[C@H](NC1=O)C(=O)N[C@@H](Cc1ccccc1)C(=O)N1CCC[C@H]1C(=O)N[C@@H](CC(=O)O)C(=O)NCC(=O)N[C@@H](CCCNC(=N)N)C(=O)N2 [Native SFTI, Sunflower Trypsin Inhibitor 1, reference compound] |  |  |  |  | 210 nM | 230 ± 3 nM |  | 0%

Reference: PMC5100903, “Tissue Kallikrein Inhibitors Based on the Sunflower Trypsin Inhibitor Scaffold – A Potential Therapeutic Intervention for Skin Diseases” (PLoS ONE, 2016)
